Source: patent US10251958B2 (NEWSOUTH INNOVATIONS PTY LIMITED, priority 2013, dated 2019)
Oligonucleotides are written 5' to 3', each unit as a sugar letter and its base; * is a phosphorothioate linkage, no mark a phosphodiester; rarer units and linkages stand in square brackets, end groups in braces. Plain capitals give the bases only. d = 2'-deoxy (DNA)

Experiments:
[1] = system: prostate cancer cell lines; experiment: Cytotoxicity against three prostate cancer cell lines (Example 4); assay type: cell-based; details: chosen concentration range
Protocol: The product was tested for particle size and cytotoxicity against prostate cancer.

cancer cells = details: most effective free Curcumin study results; read-out: free Curcumin concentration to bring about 50% cell death; cited from earlier work
[2] = Nile Red encapsulation efficiency by Fluorescence Spectroscopy; assay type: physicochemical; details: preliminary polymer-protein aggregates loaded with Nile Red
From the text: After the formation of polymer-protein Curcumin carrying micelles of a desirable size, there was a clear need to determine the amount of Curcumin actually encapsulated. Preliminary aggregates were loaded with Nile Red dye to act as a makeshift drug and analysed by Fluorescence Spectroscopy. After comparison to a Calibration curve established from analysis of Nile Red concentrations dissolved in DMSO solvent, the intensity was backcalculated to yield a 30.4% encapsulation efficiency.

[3] = DLS hydrodynamic diameter of BSA conjugated copolymer (Example 2); assay type: physicochemical; details: for PDi: 0.1M PBS pH 7, DLS
Protocol: ^1H-NMR spectra were acquired to characterised compounds using CDCl3 or d-DMSO with a 300 MHz spectrometer. Thermogravimetric analysis (TGA) was carried out using TG5000 to quantify the amount of platinum conjugated to the copolymers. The sample (≤5 mg) was placed on a thermo-balance and heated from room temperature to 600° C. at 20° C./min, and held for an isothermal period of 60 minutes under nitrogen atmosphere. Diameter size of copolymers in 0.1M PBS buffer pH 7.0 was measured using a Malvern dynamic light scattering instrument (DLS) in a disposable plastic cuvette (1 cm path length). Fluorescence measurements were performed on Agilent Cary Eclipse Fluorescence Spectrometer using a 1 cm quartz cuvette. Fluorescence spectra were recorded between 400-800 nm at λex=495 nm, λem=520 nm with entrance and exit slit width of […]. SDS-PAGE was performed using standard techniques using a premixed electrophoresis buffer which contains 25 mM Tris, 192 mM glycine and 0.1% SDS (Tris/Glycine/SDS buffer) to determine the conjugation efficiency between the BSA-FITC and the copolymer. Samples were prepared for electrophoresis without the use of a reducing agent. The samples were mixed with bromophenol blue (0.01% w/v) solution as the marker. The samples were resolved through a 10% polyacrylamide gel which was performed using a BioRad Mini-Protean II electrophoresis setup at a constant voltage (150 V). The samples were stained using Colloidal Blue Coomassie G-250 (Bio-Rad), and left overnight. Gel images were recorded using a Bio-Rad GS-800 calibrated densitometer. Native BSA was used as a control.
The size and shape of the BSA conjugated copolymer in PBS solution was investigated using DLS and TEM.

[4] = Hydrodynamic diameter and zeta potential of materials and complexes (Example 3); assay type: physicochemical; details: pH 7; ISIS 5132 200 ug/ml, BSA 1 mg/ml, PDMAEMA 0.21 mg/ml
Protocol: The resulting conjugates were dialysed in 0.05 M PBS (pH5) for 12 h by changing solvent every 2 h. […] All the conditions were kept consistent to the corresponding oligonucleotide samples. In addition, the oligonucleotide transfection efficiency of the PEGMEMA-PDMAEAM cationic block copolymer was investigated. The same protocol was adopted to make the polyion complex micelles from this polymer solution.
The condensation of the oligonucleotide was therefore carried out when the conjugate solution was at pH5 and the oligonucleotide was dissolved in MilliQ water. The albumin-polymer conjugates with a pH of 5 was then slowly added to the solutions of ISIS 5132 with the concentration of 200 μg/ml (ζ=−29.87 mV at pH7). […] After the complex micelle was stable, the system was brought back to pH7. There are several reasons for this: to reduce the aggregation of the micelle, to protect the oligonucleotide and to keep the neutral environment for cells in the afterward cytotoxicity assays.

Molecule: COc1cc(/C=C/C(=O)CC(=O)/C=C/c2ccc(O)c(OC)c2)ccc1O [Curcumin]
- toxicity [1]: only negligible toxicity
- IC50 (cancer cells): 10 µM

Molecule: CCN(CC)c1ccc2nc3c4ccccc4c(=O)cc-3oc2c1 [Nile Red]
- Nile Red encapsulation efficiency [2]: 30.4%

Molecule: BSA-FITC
- Dh number (d/nm) ([3]; 0.1M PBS pH 7, 25° C.): 7.44 nm
- PDi [3]: 0.58

Molecule: ISIS 5132: 20-base antisense phosphorothioate oligodeoxyribonucleotide: 5′TCCCGCCTGTGACATGCATT3′ (DNA dT*dC*dC*dC*dG*dC*dC*dT*dG*dT*dG*dA*dC*dA*dT*dG*dC*dA*dT*dT)
- Dh [4]: 0-107 nm
- Zeta potential [4]: −29.87 mV

Molecule: P(HPMA13-co-[(AC-DAP)9-Pt8])
- PDi [3]: 0.14
